Drawing on article PMC5243976 (Iranian Journal of Basic Medical Sciences, 2017), this text covers IC50 for 10 molecules.

SMILES strings stand for the structures.

In the test the target is acetylcholinesterase from electric eel source (AChE, E.C. 3.1.1.7, Type V-S) (Electrophorus electricus, UniProt O42275). The test can be described thus: Ellman test, anti-acetylcholinesterase activity. The class given is biochemical. In general terms: In Ellman's method for cholinesterases, released thiocholine reacts with DTNB.
Sequence of acetylcholinesterase from electric eel source (AChE, E.C. 3.1.1.7, Type V-S) (O42275 24-633): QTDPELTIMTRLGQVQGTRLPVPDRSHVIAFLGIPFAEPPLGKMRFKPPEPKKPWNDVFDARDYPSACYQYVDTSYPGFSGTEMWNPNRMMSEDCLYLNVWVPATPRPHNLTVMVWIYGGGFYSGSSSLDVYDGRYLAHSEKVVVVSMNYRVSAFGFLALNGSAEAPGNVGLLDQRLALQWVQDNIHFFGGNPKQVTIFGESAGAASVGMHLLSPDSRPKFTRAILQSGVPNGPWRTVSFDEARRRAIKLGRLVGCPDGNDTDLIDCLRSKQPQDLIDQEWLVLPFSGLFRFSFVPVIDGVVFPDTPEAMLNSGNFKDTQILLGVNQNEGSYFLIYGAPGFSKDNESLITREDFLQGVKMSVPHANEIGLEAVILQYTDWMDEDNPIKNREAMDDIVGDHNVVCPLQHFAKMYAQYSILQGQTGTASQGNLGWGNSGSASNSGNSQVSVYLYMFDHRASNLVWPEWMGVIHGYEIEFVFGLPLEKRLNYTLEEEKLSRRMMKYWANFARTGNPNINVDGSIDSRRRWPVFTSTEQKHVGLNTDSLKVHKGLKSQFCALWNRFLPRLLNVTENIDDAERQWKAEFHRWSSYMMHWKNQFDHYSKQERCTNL
For orientation: IC50 means the concentration needed to halve the response being measured. Low values mean higher potency, high ones lower potency. With `O=C(c1cccc(Cl)c1)N1CCN(CCN2C(=O)c3ccccc3C2=O)CC1` [Compound 4b, 2-(2-(4-(3-Chlorobenzoyl)piperazin-1-yl)ethyl) isoindoline-1,3-dione], the midpoint of inhibition, the IC50, lay at 70.2 µM.

`O=C(c1ccc(F)cc1)N1CCN(CCN2C(=O)c3ccccc3C2=O)CC1` [Compound 4f, 2-(2-(4-(4-Fluorobenzoyl)piperazin-1-yl)ethyl) isoindoline-1,3-dione] gave a half-maximal inhibitory concentration (IC50) of 50.6 µM.

In turn, `O=C(c1ccc(Cl)cc1)N1CCN(CCN2C(=O)c3ccccc3C2=O)CC1` [Compound 4c, 2-(2-(4-(4-Chlorobenzoyl)piperazin-1-yl)ethyl) isoindoline-1,3-dione] yielded an IC50 of more than 1000 µM.

Take `O=C(c1ccccc1F)N1CCN(CCN2C(=O)c3ccccc3C2=O)CC1` [Compound 4d, 2-(2-(4-(2-Fluorobenzoyl)piperazin-1-yl)ethyl) isoindoline-1,3-dione]: the IC50 turned out to be 3.6 µM. This lies in the single-digit micromolar range.

In turn, `O=C(c1cccc(F)c1)N1CCN(CCN2C(=O)c3ccccc3C2=O)CC1` [Compound 4e, 2-(2-(4-(3-Fluorobenzoyl)piperazin-1-yl)ethyl) isoindoline-1,3-dione] came in with an IC50 of 0.0071 µM.

`COc1cccc(C(=O)N2CCN(CCN3C(=O)c4ccccc4C3=O)CC2)c1` [Compound 4h, 2-(2-(4-(3-Methoxybenzoyl)piperazin-1-yl)ethyl) isoindoline-1,3-dione] showed a concentration for half-maximal inhibition (IC50) of 1.3 µM. Against the preceding molecule, the IC50 is about 180-fold higher.

For the molecule `COc1ccccc1C(=O)N1CCN(CCN2C(=O)c3ccccc3C2=O)CC1` [Compound 4g, 2-(2-(4-(2-Methoxybenzoyl)piperazin-1-yl)ethyl) isoindoline-1,3-dione], 100 µM corresponded to half-maximal inhibition (IC50).

Take `O=C(c1ccccc1[N+](=O)[O-])N1CCN(CCN2C(=O)c3ccccc3C2=O)CC1` [Compound 4j, 2-(2-(4-(2-Nitrobenzoyl)piperazin-1-yl)ethyl) isoindoline-1,3-dione]: half-maximal inhibition (IC50) was put at 141 µM.

In turn, `COc1ccc(C(=O)N2CCN(CCN3C(=O)c4ccccc4C3=O)CC2)cc1` [Compound 4i, 2-(2-(4-(4-Methoxybenzoyl)piperazin-1-yl)ethyl) isoindoline-1,3-dione] returned an IC50 of 0.0203 µM.

In turn, `O=C(c1ccccc1Cl)N1CCN(CCN2C(=O)c3ccccc3C2=O)CC1` [Compound 4a, 2-(2-(4-(2-Chlorobenzoyl)piperazin-1-yl)ethyl) isoindoline-1,3-dione] came in with a half-maximal inhibitory concentration (IC50) of 333 µM.
